Test system: Nit11764
Details: 40 mM Na-K phosphate pH 7.0

| Compound | Km |
| --- | --- |
| N#C/C=C/c1ccccc1 [Cinnamonitrile] | 1.27 ± 0.4 mM |
| N#C/C=C/C#N [Fumaronitrile] | 8.57 ± 0.8 mM |
